Laboratory results: ChEMBL document CHEMBL1201862, “PubChem BioAssay data set” (2004)
One block for each compound: values may come before it. Activity calls are given as the source filed them.

Columns and labels:
[1] = inhibition of Env-driven cell fusion – HIV entry, plate reader, dry powder, dose response (AID 687023); format: functional, cell-based
[2] = viability loss in CEM21 cells – cell-based, plate reader, dry powder, cytotoxicity control, dose response (AID 687026); format: functional
[3] = Late stage assay provider results from the probe development effort to identify selective inhibitors of heat shock protein 90 (HSP90): Absorbance-based cell proliferation assay in SKBR3 cells.; format: functional; conditions: SK-BR-3
[4] = Late stage assay provider results from the probe development effort to identify selective inhibitors of heat shock protein 90 (HSP90): Absorbance-based cell proliferation assay in MCF7 cells.; format: functional
[5] = HepG2 viability loss by ATP level – cell-based, CellTiter-Glo luminescence, cherry-pick, set 4, cytotoxicity control, dose response (AID 743480); format: functional
[6] = ATP-based viability loss in HEK293T cells – cell-based, CellTiter-Glo luminescence, cherry-picked samples, set 4, cytotoxicity control, dose response (AID 743441); format: functional; conditions: HEK293
[7] = target: T1, Calpain-2 catalytic subunit (Sus scrofa, UniProt P43367); assay: m-calpain protease blockers, concentration series – biochemical, fluorogenic peptide substrate, dose response (AID 1420); format: functional
T1 sequence (P43367 whole entry): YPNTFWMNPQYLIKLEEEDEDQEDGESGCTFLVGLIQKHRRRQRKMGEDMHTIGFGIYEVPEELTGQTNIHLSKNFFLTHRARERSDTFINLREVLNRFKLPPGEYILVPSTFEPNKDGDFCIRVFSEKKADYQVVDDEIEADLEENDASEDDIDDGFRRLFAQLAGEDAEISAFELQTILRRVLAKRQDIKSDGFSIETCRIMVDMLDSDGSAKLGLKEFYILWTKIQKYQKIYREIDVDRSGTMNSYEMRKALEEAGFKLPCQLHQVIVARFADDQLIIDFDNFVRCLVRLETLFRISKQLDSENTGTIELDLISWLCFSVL

[8] = A549 lung cell viability reduction – CellTiter-Glo luminescence, cherry-pick, cytotoxicity control, dose response (AID 743484); format: functional, cell-based
[9] = PAX5 cellular inhibition readout – cell-based, plate reader, dry powder samples, selectivity assay for PAX8 inhibitor project, dose response (AID 743047); format: functional;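 also: HEK293 cells carrying a Pax5 driven CD19 promoter luciferase reporter; potency of inhibitors that lower reporter luminescence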
[10] = inhibitors acting on PAX2 in cells – cell-based, plate reader, dry powder samples, selectivity assay for PAX8 inhibitor project, dose response (AID 743048); format: functional;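 also: HEK293 cells carrying a WT1 promoter luciferase reporter driven by expressed Pax2; potency is for inhibition of Pax2 driven reporter signal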
[11] = COV434 cell viability loss – plate reader, dry powder, SA7, cytotoxicity control for PAX8 inhibitor project, dose response (AID 743145); format: functional, cell-based
[12] = PAX8-dependent cell viability loss – plate reader, dry powder, dose response (AID 743049); format: functional, cell-based
[13] = IC50 of Artemis nuclease activity blockers – biochemical, fluorescence intensity, dose response (AID 720701); format: functional;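 also: Artemis endonuclease enzyme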
[14] = viability loss in HepG2 hepatoma cells – cell-based, cherry-picks, set 5, cytotoxicity control, dose response (AID 1053118); format: functional
Kallikrein-7 = Kallikrein-7 (Homo sapiens, UniProt P49862); assay: Fluorescence Intensity-based biochemical primary high throughput dose response assay to identify activators of kallikrein-7 (K7) zymogen.
[15] = optical artefact potency, substrate without enzyme – biochemical, fluorescence intensity, triplicate, artefact control for kallikrein-7 zymogen activator project, dose response (AID 720493)
[16] = HEK293 Cytotoxicity Assay Measured in Cell-Based System Using Plate Reader - 7071-01_Inhibitor_Dose_CherryPick_Activity_Set2.; format: functional
HeLa = assay: viability loss in HeLa cells – cell-based, ATP luminescence, cherry-pick samples, cytotoxicity control, dose response (AID 687004); format: functional; conditions: Homo sapiens
HEK293 = assay: viability loss in HEK293T cells – cell-based, ATP luminescence, cherry-pick samples, cytotoxicity control, dose response (AID 687005); format: functional; conditions: Homo sapiens;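 also: cells exposed to compound for 48 hours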
[17] = general cell-killing toxicity readout – plate reader, dry powder samples, cytotoxicity control for PAX8 inhibitor project, dose response (AID 743021); format: functional, cell-based
[18] = COV362 cell viability loss – plate reader, dry powder, SA12, cytotoxicity control for PAX8 inhibitor project, dose response (AID 743144); format: functional, cell-based
cells [19] = format: functional, cell-based
Paired box protein Pax-8 = Paired box protein Pax-8 (Homo sapiens, UniProt Q06710); assay: PAX8 transcriptional activity inhibition in RMG-I – RMG-I cells, luciferase, cherry-pick, dose response (AID 687027); format: functional, cell-based;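 also: luciferase reporter driven by Pax8 target thyroperoxidase promoter measured by SteadyGlo luminescence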
cells [20] = format: functional, cell-based; remark: listed apart in the source
[21] = toxicity toward immortalized ovarian surface epithelium – cell-based, plate reader, dry powder samples, cytotoxicity control for PAX8 inhibitor project, dose response (AID 743045); format: functional
[22] = OVCAR4 cell viability loss – plate reader, dry powder, SA11, cytotoxicity control for PAX8 inhibitor project, dose response (AID 743150); format: functional, cell-based; conditions: OVCAR-4
[23] = IGROV1 cell killing – plate reader, dry powder samples, PAX8 inhibitor project, dose response (AID 743043); format: functional, cell-based; conditions: IGROV-1
[24] = OVCAR-3 cell viability loss – plate reader, dry powder samples, PAX8 inhibitor project, dose response (AID 743044); format: functional, cell-based
[25] = OV-90 cell viability loss – plate reader, dry powder, SA8, PAX8 inhibitor project, dose response (AID 743149); format: functional, cell-based
[26] = viability loss in HEK293T cells – cell-based, cherry-picks, cytotoxicity control for HIV Vif inhibitor project, dose response (AID 652208); format: functional

Paired box protein Pax-8, sequence (Q06710 whole entry): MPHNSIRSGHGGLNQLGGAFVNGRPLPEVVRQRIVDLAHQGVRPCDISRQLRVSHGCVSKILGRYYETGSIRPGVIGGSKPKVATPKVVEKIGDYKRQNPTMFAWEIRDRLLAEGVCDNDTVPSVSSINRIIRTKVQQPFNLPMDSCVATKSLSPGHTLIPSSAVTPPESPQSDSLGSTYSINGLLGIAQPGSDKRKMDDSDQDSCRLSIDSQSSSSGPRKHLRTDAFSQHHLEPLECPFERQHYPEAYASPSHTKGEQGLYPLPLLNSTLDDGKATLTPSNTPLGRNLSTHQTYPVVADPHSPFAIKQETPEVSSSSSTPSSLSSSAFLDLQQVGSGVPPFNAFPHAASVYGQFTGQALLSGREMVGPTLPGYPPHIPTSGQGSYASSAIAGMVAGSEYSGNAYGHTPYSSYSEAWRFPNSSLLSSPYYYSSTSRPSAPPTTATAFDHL
Kallikrein-7, sequence (P49862 whole entry): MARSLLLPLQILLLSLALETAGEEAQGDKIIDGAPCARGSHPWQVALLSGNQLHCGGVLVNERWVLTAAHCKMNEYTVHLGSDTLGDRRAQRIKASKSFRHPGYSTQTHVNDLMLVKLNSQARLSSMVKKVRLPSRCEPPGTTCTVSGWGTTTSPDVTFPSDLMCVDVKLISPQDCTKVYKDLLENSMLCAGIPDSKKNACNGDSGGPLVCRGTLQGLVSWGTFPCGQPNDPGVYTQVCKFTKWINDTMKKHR

SMILES: Cc1noc(C)c1S(=O)(=O)Nc1cccc2c1O[C@H](CN(C)Cc1ccc(C(F)(F)F)cc1)[C@H](C)CN([C@@H](C)CO)C2=O
- AC50 [1]: 10.6 µM (active)
- AC50 [2]: > 70 µM (inactive)

SMILES: COc1ccc(N/C=C2\C(=O)OC(=O)c3ccccc32)cc1
- IC50 [3]: > 100 µM (inactive)
- IC50 [4]: > 100 µM (inactive)

SMILES: O=C(COC(=O)c1cccc(O)c1)Nc1ccc(Cl)cc1C(=O)c1ccccc1
- AC50 [5]: > 52 µM (inactive)
- AC50 [6]: > 52 µM (inactive)
- IC50 [7]: 17.9 µM (not active)
- AC50 [8]: 32.3 µM (active)

SMILES: N#C[C@H]1[C@@H](c2ccc(C3=CCCC3)cc2)[C@@H](CO)N1C(=O)NC1CCCCC1
- AC50 [9]: > 70 µM (inactive)
- AC50 [10]: 52.1 µM (active)
- AC50 [11]: > 70 µM (inactive)
- AC50 [12]: 61.5 µM (active)

- IC50 [13]: 18.7 µM (active)
SMILES: O=C(Nc1nc2n(n1)C(c1ccccc1)CC(c1ccc(Cl)cc1)N2)c1ccco1 (configuration not stated)

SMILES: N#C[C@H]1[C@@H](c2ccccc2C2=CCCCC2)[C@@H](CO)N1S(=O)(=O)c1ccccc1
- AC50 [14]: > 47 µM (inactive)

- EC50 (Kallikrein-7): > 69.5 µM (inactive)
SMILES: COc1ccc(-c2cc(-c3ccccc3)n3ncnc3n2)cc1
- EC50 [15]: > 7.72 µM (active)

SMILES: COc1ccccc1C(=O)Nc1ccc2c(c1)C(=O)N(C)C[C@H](OC)[C@@H](C)CN(CC1CC1)[C@@H](C)CO2
- AC50 [16]: 24.1 µM (active)
- AC50 (HeLa): > 52 µM (inactive)
- AC50 (HEK293): 24.1 µM (active)

SMILES: COc1ccc(-c2cc(C(F)(F)F)nc(S(=O)(=O)CCCC(=O)Nc3cc(C)on3)n2)cc1OC
- AC50 [17]: 23.1 µM (active)
- AC50 [18]: 21.2 µM (active)
- EC50 (cells [19]): > 350 µM (not active)
- AC50 (Paired box protein Pax-8): 9.94 µM (active)
- EC50 (cells [20]): > 350 µM (not active)
- AC50 [21]: 29.4 µM (active)
- AC50 [22]: 27.7 µM (active)
- AC50 [23]: 13.4 µM (active)
- AC50 [24]: 20.7 µM (active)
- AC50 [25]: 30.1 µM (active)
- AC50 [26]: 13.7 µM (active)
- AC50 [11]: 15.2 µM (active)
- AC50 [12]: 16.2 µM (active)
